Measured values as given in publication PMC10970924 (Life, 2024).
Marks after values point to notes of the source that are not given here.

What was measured:
[1] = Neutralization of the ABTS radical; conditions: for EC50: 37 °C, 15 min, 738 nm, read-out: EC50 of half-maximal ABTS radical inhibition; for Trolox Equivalent Antioxidant Capacity (TEAC): ABTS radical neutralization, relative to Trolox
Protocol: Initially, an ABTS solution was prepared in water at a concentration of 7 mM. Subsequently, the radical cation ABTS^•+ was generated by mixing the original ABTS solution with 2.45 mM ammonium persulfate at a 1:1 ratio. This mixture was then allowed to stand in the dark at room temperature for 12–16 h before use. The diluted ABTS^•+ solution was prepared in a methanol/water mixture (1:1) reaching an optical density of 0.7 units at 738 nm (~0.7 mM). Next, various concentrations of compounds (ranging from 1000, 500, 250, 125, 62.5, 31.2, 15.6, to 7.8 μM) in a volume of 130 µL in a methanol/water mixture (1:1) were mixed with the ABTS radical cation solution (~0.7 mM) in a volume of 130 µL. The mixture was then incubated at 37 °C in a water bath for 15 min. The optical density was measured at 738 nm using the Infinite M200 PRO (TECAN, Zürich, Switzerland) plate reader. The percentage inhibition of ABTS absorption relative to the control was calculated. A percent inhibition vs. antioxidant concentration graph was plotted and the concentration of the antioxidant that suppresses the optical density of the ABTS radical by 50% (EC50) was determined. The Trolox Equivalent Antioxidant Capacity (TEAC) was also calculated.

[2] = tested on: porcine neuronal tubulin; assay: Tubulin polymerization assay (Cytoskeleton kit); type: biochemical; conditions: effector 10 µM; for Maximum Initial Rate of Polymerization V Max: tubulin 3 mg/mL, 37 °C
Protocol: To assess the effect of the test compounds on tubulin polymerization, a test kit from Cytoskeleton was used. The plate was pre-warmed to 37 °C for 20 min before starting the assay. Then, 10 µL of the compound of interest, at a 10-fold concentration in an assay buffer, was pipetted into the plate. For comparison, paclitaxel, a polymerization enhancer, and vinblastine, a tubulin polymerization inhibitor, were used. Both effectors were used at a concentration of 10 µM. The assay buffer served as a control. The plate was then incubated at 37 °C for 2 min, after which 100 µL of the diluted tubulin solution (containing 3 mg/mL of tubulin in 80 mM PIPES pH 6.9, 2 mM MgCl2, 0.5 mM EGTA, 1 mM GTP, and 7% glycerol) was added. The plate was then immediately placed in the plate reader. Absorbance was measured at 340 nm every minute for 61 readings on a Varioskan LUX (Thermo Scientific, Waltham, MA, USA) plate reader.

| Compound | EC50 [1] [µM] | Trolox Equivalent Antioxidant Capacity (TEAC) [1] | Maximum Initial Rate of Polymerization V Max [2] | also measured |
| --- | --- | --- | --- | --- |
| O=C1O[C@H]([C@@H](O)CO)C(O)=C1O [Ascorbic acid] | 15.2 ± 4.8 | 1.03 |  |  |
| CC(=O)O[C@H]1C(=O)[C@@]2(C)[C@H]([C@H](OC(=O)c3ccccc3)[C@]3(O)C[C@H](OC(=O)[C@H](O)[C@@H](NC(=O)c4ccccc4)c4ccccc4)C(C)=C1C3(C)C)[C@]1(OC(C)=O)CO[C@@H]1C[C@@H]2O [Paclitaxel, paclitaxel] |  |  | 8 * mOD/Min | Vmax, times higher than in the control reaction [2]: 1.2; Maximum Initial Rate of Polymerization V Max ([2]; listed as paclitaxel): 8.0 mOD/Min |
| O=c1c(O)c(-c2ccc(O)c(O)c2)oc2cc(O)cc(O)c12 [Quercetin] | 3.2 ± 1.6 | 4.9 |  |  |
| Cc1c(C)c2c(c(C)c1O)CCC(C)(C(=O)O)O2 (stereo not drawn) [Trolox] | 15.7 ± 3.4 | 1.0 |  |  |
| CC[C@]1(O)C[C@@H]2CN(CCc3c([nH]c4ccccc34)[C@@](C(=O)OC)(c3cc4c(cc3OC)N(C)[C@H]3[C@@](O)(C(=O)OC)[C@H](OC(C)=O)[C@]5(CC)C=CCN6CC[C@]43[C@@H]65)C2)C1 [Vinblastine, vinblastine] |  |  | 2.4 * mOD/Min | Inhibition of tubulin polymerization, fold [2]: 3; Maximum Initial Rate of Polymerization V Max ([2]; listed as vinblastine): 2.4 mOD/Min |
